Assay results: patent US20080108710A1, “High-Potency Sweetener Composition With Preservative and Compositions Sweetened Therewith” (THE COCA-COLA COMPANY, priority 2006, published 2008)

How the values were obtained:
[1] = Rate of dissolution of rebaudioside A polymorph and amorphous forms in H2O; format: physicochemical
Text: The purification of rebaudioside A by crystallization as described above results in the formation of at least three different polymorphs: Form 1: a rebaudioside A hydrate; Form 2: an anhydrous rebaudioside A; and Form 3: a rebaudioside A solvate. In addition to the at least three polymorph forms of rebaudioside A, the purification of rebaudioside A may result in the formation of an amorphous form of rebaudioside A, Form 4. The aqueous organic solution and temperature of the purification process influence the resulting polymorph and amorphous forms in the substantially pure rebaudioside A composition. FIGS. 1-5 are exemplary powder x-ray diffraction (XRPD) scans of the polymorph and amorphous forms of rebaudioside A: Form 1 (hydrate), Form 2 (anhydrate), Form 3A (methanol solvate), Form 3B (ethanol solvate), and Form 4 (amorphous), respectively.

[2] = test system: panel of experts in the sensory evaluation of foods and beverages; assay: Sensory evaluation of sweetness linger and taste characteristics; format: in vivo; design: key: 0: no sweetness linger; 1: very slight sweetness linger; 2: slight sweetness linger; 3: moderate sweetness linger; 4: moderately high sweetness linger; 5: high sweetness linger
Protocol: Sensory evaluation of the samples prepared in Example Set G was carried out under the following protocol, similar to that described hereinabove. In this test protocol, none of the samples were swallowed. All samples were expectorated and the mouth was rinsed with water after the tasting. Immediately upon sensing maximal sweetness, the sample was expectorated, the mouth was rinsed with water and the rate of sweetness decay (“Sweetness Linger”) was measured, where attention was focused on the sweetness 3-4 min after the water rinse. After sample tasting was complete, a salty oyster cracker was chewed followed by a water rinse, and at least 5 minutes followed before tasting the next sample. […]
Sweet taste improving compositions were combined with a REBA solution to determine their effect on sweetness linger. Screening of the initial sample, or further dilutions, allowed identification of concentrations which were just above-threshold, herein defined as “near-threshold concentrations.” The near-threshold additive concentrations, a 6- to 100-fold higher higher additive concentration (depending on the off-taste intensity), and a mid-level additive concentration (halfway between the near-threshold and higher additive concentration) were evaluated to determine the effect on sweetness linger of a REBA solution. […]

Rate of dissolution in H2O at 25° C. [1] | Substance | Sweetness Linger ([2]; Example Set G: citric acid/potassium citrate composition equivalent to diet lemon-lime beverage, scale 0-5, sweetness 3-4 min after water rinse) | Sweetness Linger ([2]; Example Set H: carbon-treated water with phosphoric acid (75%) to pH 2.4-2.5, scale 0-5)
Intermediate (<30%/5 %/5 minutes | rebaudioside A [Form 2] |  | 
Very low (<0.2%/60 %/60 minutes | rebaudioside A [Form 1] |  | 
 | rebaudioside A | 5 | 5
